Laboratory results published in ChEMBL document CHEMBL1201862, “PubChem BioAssay data set” (2004).
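These data come from cells grown in 96-well plates and exposed to compound for 48 hours at five concentrations. The concentration for 50% growth inhibition is given as GI50.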 Calls of active or inactive are those of the source. Cut-off read from the data, not from the text of the source: active = GI50 up to about 1.1 µM and inactive = higher.

Key:
Experiment in all cases: DTP human tumour cell line panel, 48 h
DU-145 = system: DU-145
EKVX = system: EKVX
HCC 2998 = system: HCC 2998
HCT-116 = system: HCT-116
HCT-15 = system: HCT-15
K562 = system: K562
KM12 = system: KM12
M14 = system: M14
MDA-MB-435 = system: MDA-MB-435
NCI-H23 = system: NCI-H23
NCI-H460 = system: NCI-H460
OVCAR-4 = system: OVCAR-4
OVCAR-8 = system: OVCAR-8
PC-3 = system: PC-3
SF-295 = system: SF-295
SK-MEL-5 = system: SK-MEL-5
SNB-75 = system: SNB-75
SR = system: SR
HOP-92 = system: HOP-92

| SMILES | GI50 (DU-145) | GI50 (EKVX) | GI50 (HCC 2998) | GI50 (HCT-116) | GI50 (HCT-15) [µM] | GI50 (K562) | GI50 (KM12) | GI50 (M14) | GI50 (MDA-MB-435) | GI50 (NCI-H23) | GI50 (NCI-H460) | GI50 (OVCAR-4) | GI50 (OVCAR-8) | GI50 (PC-3) | GI50 (SF-295) | GI50 (SK-MEL-5) | GI50 (SNB-75) | GI50 (SR) | GI50 (HOP-92) |
| --- | --- | --- | --- | --- | --- | --- | --- | --- | --- | --- | --- | --- | --- | --- | --- | --- | --- | --- | --- |
| OCCCCCCCCCCCOc1ccc(C2OCC3(CO2)COC(c2ccc(OCCCCCCCCCCCO)cc2)OC3)cc1 (stereo unspecified) | > 50 µM (inactive) | > 50 µM (inactive) | > 50 µM (inactive) | > 50 µM (inactive) | > 50 | > 50 µM (inactive) | > 50 µM (inactive) | > 50 µM (inactive) | > 50 µM (inactive) | > 50 µM (inactive) | > 50 µM (inactive) | > 50 µM (inactive) | > 50 µM (inactive) | > 50 µM (inactive) | > 50 µM (inactive) | > 50 µM (inactive) | > 50 µM (inactive) | > 50 µM (inactive) |  |
| CCOc1cc(C2SCC(=O)N2c2ccc(Oc3ccc(Cl)cc3)c(Cl)c2)ccc1O (stereo unspecified) | 16.6 µM (inactive) | 18 µM (inactive) | 17.9 µM (inactive) | 12.2 µM (inactive) | 19.6 | 27.1 µM (inactive) | 16.9 µM (inactive) | 23.5 µM (inactive) | 19 µM (inactive) | 17 µM (inactive) | 19.2 µM (inactive) | 16 µM (inactive) | 17.7 µM (inactive) | 16.6 µM (inactive) | 18.9 µM (inactive) | 16.1 µM (inactive) | 21.2 µM (inactive) | 2.04 µM (inactive) | 18.6 µM (inactive) |
| O=C(OC[C@H]1C[C@H]2C(=O)CCC[C@H]2O1)c1ccccc1 | > 100 µM (inactive) | > 100 µM (inactive) |  | > 100 µM (inactive) | > 100 | > 100 µM (inactive) | > 100 µM (inactive) | > 100 µM (inactive) | > 100 µM (inactive) | > 100 µM (inactive) | > 100 µM (inactive) | > 100 µM (inactive) | > 100 µM (inactive) | > 100 µM (inactive) | > 100 µM (inactive) | > 100 µM (inactive) | > 100 µM (inactive) | > 100 µM (inactive) | > 100 µM (inactive) |
| CO[C@@H](C(=O)OC1C=CC2(CC1)C(=O)N(C)c1ccccc12)c1ccccc1 (stereo partly specified) | > 100 µM (inactive) | 57 µM (inactive) | > 100 µM (inactive) | 52.5 µM (inactive) | > 100 | 20 µM (inactive) | > 100 µM (inactive) | 72.6 µM (inactive) | 94.8 µM (inactive) | 76.6 µM (inactive) | > 100 µM (inactive) | 70.3 µM (inactive) | > 100 µM (inactive) | > 100 µM (inactive) | > 100 µM (inactive) | 34.3 µM (inactive) | > 100 µM (inactive) | 42.1 µM (inactive) | > 100 µM (inactive) |
| CNC1=C/C(=N/C2=CC(=N/C(=C\C#N)C(C)(C)O)/OC2(C)C)OC1(C)C | 12 µM (inactive) | 13.7 µM (inactive) | 29.2 µM (inactive) | 5.15 µM (inactive) | 5.31 | 3.12 µM (inactive) | 13.5 µM (inactive) | 11.8 µM (inactive) | 22.6 µM (inactive) | 33.3 µM (inactive) | 5.97 µM (inactive) | 27.2 µM (inactive) | 9.84 µM (inactive) | 13.2 µM (inactive) | 23.9 µM (inactive) | 14.9 µM (inactive) | 6.76 µM (inactive) | 4.9 µM (inactive) | 11.9 µM (inactive) |
| COc1ccc(-n2sc3ncccc3c2=O)cc1 | 39.4 µM (inactive) | 14.8 µM (inactive) | 46.5 µM (inactive) | 17.7 µM (inactive) | 22.6 |  | 19.1 µM (inactive) | 21.9 µM (inactive) | 28.8 µM (inactive) | 19.3 µM (inactive) | 34.6 µM (inactive) | > 100 µM (inactive) | 26.8 µM (inactive) | 23.8 µM (inactive) | > 100 µM (inactive) | 20 µM (inactive) | 23.6 µM (inactive) | 13.2 µM (inactive) | 27.7 µM (inactive) |
